Data published in PubChem BioAssay AID1963431 (Molecular Pharmacology Branch, DTP, NCI, 2024).

Test system: Rh18 complex spheroid viability, percent test/control
Assay: Anticancer human tumor Rh18 cell line growth inhibition [Asc];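 further: spheroids exposed to compound for 7 days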;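 on viability, T/C: 100% = DMSO vehicle control wells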
Settings: for IC50: curve of first compound; for viability, T/C: stronger effect = lower value
Method in brief: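 Tumor cells were grown as multicellular spheroids with stromal HUVEC and mesenchymal stem cells and treated singly or in combination. Concentrations fell in half-log steps from the clinical Cmax, or from 10 microM where none was known.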

[1] = second compound 0.01 µM, first compound 0.00316 µM
[2] = second compound 0.01 µM, first compound 0.01 µM
[3] = second compound 0.01 µM, first compound 0.0316 µM
[4] = second compound 0.01 µM, first compound 0.1 µM
[5] = second compound 0.01 µM, first compound 0.316 µM
[6] = second compound 0.01 µM, first compound 1 µM
[7] = second compound 0.0316 µM, first compound 0.00316 µM
[8] = second compound 0.0316 µM, first compound 0.01 µM
[9] = second compound 0.0316 µM, first compound 0.0316 µM
[10] = second compound 0.0316 µM, first compound 0.1 µM
[11] = second compound 0.0316 µM, first compound 0.316 µM
[12] = second compound 0.0316 µM, first compound 1 µM
[13] = second compound 0.1 µM, first compound 0.00316 µM
[14] = second compound 0.1 µM, first compound 0.01 µM
[15] = second compound 0.1 µM, first compound 0.0316 µM
[16] = second compound 0.1 µM, first compound 0.1 µM
[17] = second compound 0.1 µM, first compound 0.316 µM
[18] = second compound 0.1 µM, first compound 1 µM
[19] = second compound 0.316 µM, first compound 0.00316 µM
[20] = second compound 0.316 µM, first compound 0.01 µM
[21] = second compound 0.316 µM, first compound 0.0316 µM
[22] = second compound 0.316 µM, first compound 0.1 µM
[23] = second compound 0.316 µM, first compound 0.316 µM
[24] = second compound 0.316 µM, first compound 1 µM
[25] = second compound 1 µM, first compound 0.00316 µM
[26] = second compound 1 µM, first compound 0.01 µM
[27] = second compound 1 µM, first compound 0.0316 µM
[28] = second compound 1 µM, first compound 0.1 µM
[29] = second compound 1 µM, first compound 0.316 µM
[30] = second compound 1 µM, first compound 1 µM

Row | IC50 (second compound 0.01 µM) [nM] | IC50 (second compound 0.0316 µM) [nM] | IC50 (second compound 0.1 µM) [nM] | IC50 (second compound 0.316 µM) [nM] | IC50 (second compound 1 µM) [nM] | SMILES | viability, T/C [1] [%] | viability, T/C [2] [%] | viability, T/C [3] [%] | viability, T/C [4] [%] | viability, T/C [5] [%] | viability, T/C [6] [%] | viability, T/C [7] [%] | viability, T/C [9] [%] | viability, T/C [10] [%] | viability, T/C [15] [%] | viability, T/C [16] [%] | viability, T/C [21] [%] | viability, T/C [22] [%] | viability, T/C [27] [%] | viability, T/C [28] [%] | also measured
1 | < 3.16 | < 3.16 | < 3.16 | < 3.16 | < 3.16 | CCN1CCN(Cc2ccc(Nc3ncc(F)c(-c4cc(F)c5nc(C)n(C(C)C)c5c4)n3)nc2)CC1 + CNC(C)C(=O)NC1CN(S(=O)(=O)c2cccc(S(=O)(=O)N3CCC4CCC(C(=O)NC(c5ccccc5)c5ccccc5)N4C(=O)C(NC(=O)C(C)NC)C3)c2)CCC2CCC(C(=O)NC(c3ccccc3)c3ccccc3)N2C1=O | 57 | 50 | 39.2 | 40.6 | 58.6 | 86.7 | 47.7 | 39.6 | 38 | 35.2 | 40.1 | 38.3 | 35.7 | 30.6 | 29.5 | viability, T/C [8]: 46.1%; viability, T/C [11]: 48.7%; viability, T/C [12]: 90.9%; viability, T/C [13]: 47.1%; viability, T/C [14]: 47.5%; viability, T/C [17]: 48.3%; viability, T/C [18]: 53.8%; viability, T/C [19]: 59.2%; viability, T/C [20]: 47.2%; viability, T/C [23]: 44.4%; viability, T/C [24]: 67.4%; viability, T/C [25]: 34.7%; viability, T/C [26]: 30%; viability, T/C [29]: 38.7%; viability, T/C [30]: 60.7%
2 | 3.74 | 1.53 | < 0.316 | 0.406 | 0.588 | Cn1ncnc1[C@H]1c2n[nH]c(=O)c3cc(F)cc(c23)N[C@@H]1c1ccc(F)cc1 + CNC(C)C(=O)NC1CN(S(=O)(=O)c2cccc(S(=O)(=O)N3CCC4CCC(C(=O)NC(c5ccccc5)c5ccccc5)N4C(=O)C(NC(=O)C(C)NC)C3)c2)CCC2CCC(C(=O)NC(c3ccccc3)c3ccccc3)N2C1=O | 53.5 | 26.7 | 18.4 | 19.2 | – | – | 36.5 | 18.7 | 21.3 | 14.8 | 15 | 12.4 | 20 | 18.4 | 14.2 | viability, T/C (second compound 0.01 µM, first compound 0.000316 µM): 54.4%; viability, T/C (second compound 0.01 µM, first compound 0.001 µM): 64.3%; viability, T/C (second compound 0.0316 µM, first compound 0.000316 µM): 62.7%; viability, T/C (second compound 0.0316 µM, first compound 0.001 µM): 58.1%; viability, T/C [8]: 23.1%; viability, T/C (second compound 0.1 µM, first compound 0.000316 µM): 39.4%; viability, T/C (second compound 0.1 µM, first compound 0.001 µM): 47.7%; viability, T/C [13]: 34.6%; viability, T/C [14]: 18%; viability, T/C (second compound 0.316 µM, first compound 0.000316 µM): 55.7%; viability, T/C (second compound 0.316 µM, first compound 0.001 µM): 29.6%; viability, T/C [19]: 25.5%; viability, T/C [20]: 19.6%; viability, T/C (second compound 1 µM, first compound 0.000316 µM): 49.1%; viability, T/C (second compound 1 µM, first compound 0.001 µM): 51.2%; viability, T/C [25]: 42.9%; viability, T/C [26]: 26.1%
3 | 404 | < 31.6 | < 31.6 | < 31.6 | < 31.6 | O=C(c1cc(Cc2n[nH]c(=O)c3ccccc23)ccc1F)N1CCN(C(=O)C2CC2)CC1 + CNC(C)C(=O)NC1CN(S(=O)(=O)c2cccc(S(=O)(=O)N3CCC4CCC(C(=O)NC(c5ccccc5)c5ccccc5)N4C(=O)C(NC(=O)C(C)NC)C3)c2)CCC2CCC(C(=O)NC(c3ccccc3)c3ccccc3)N2C1=O | – | – | 60.7 | 48.4 | 49.6 | 39.4 | – | 45.8 | 49.9 | 42 | 40.2 | 40 | 38.9 | 32.2 | 36.8 | viability, T/C (second compound 0.01 µM, first compound 3.16 µM): 13.2%; viability, T/C (second compound 0.01 µM, first compound 10 µM): 16.7%; viability, T/C [11]: 46.4%; viability, T/C [12]: 34.5%; viability, T/C (second compound 0.0316 µM, first compound 3.16 µM): 16.7%; viability, T/C (second compound 0.0316 µM, first compound 10 µM): 18.1%; viability, T/C [17]: 26.7%; viability, T/C [18]: 27.8%; viability, T/C (second compound 0.1 µM, first compound 3.16 µM): 11.1%; viability, T/C (second compound 0.1 µM, first compound 10 µM): 12.8%; viability, T/C [23]: 36.8%; viability, T/C [24]: 26.6%; viability, T/C (second compound 0.316 µM, first compound 3.16 µM): 11.3%; viability, T/C (second compound 0.316 µM, first compound 10 µM): 12.2%; viability, T/C [29]: 32.5%; viability, T/C [30]: 26.1%; viability, T/C (second compound 1 µM, first compound 3.16 µM): 10.8%; viability, T/C (second compound 1 µM, first compound 10 µM): 10.9%
4 | 61.8 | 3.16 | < 3.16 | < 3.16 | < 3.16 | O=C(c1ccc(F)c(F)c1Nc1ccc(I)cc1F)N1CC(O)([C@@H]2CCCCN2)C1 + CNC(C)C(=O)NC1CN(S(=O)(=O)c2cccc(S(=O)(=O)N3CCC4CCC(C(=O)NC(c5ccccc5)c5ccccc5)N4C(=O)C(NC(=O)C(C)NC)C3)c2)CCC2CCC(C(=O)NC(c3ccccc3)c3ccccc3)N2C1=O | 53.6 | 59.4 | 48.5 | 45.2 | 41.8 | 14.8 | 50.4 | 43.6 | 47.7 | 36.1 | 43.4 | 38.2 | 42.3 | 37.3 | 42.9 | viability, T/C [8]: 46.1%; viability, T/C [11]: 52.1%; viability, T/C [12]: 20.4%; viability, T/C [13]: 39.7%; viability, T/C [14]: 40.8%; viability, T/C [17]: 37.9%; viability, T/C [18]: 8.57%; viability, T/C [19]: 43.8%; viability, T/C [20]: 47%; viability, T/C [23]: 41.6%; viability, T/C [24]: 13.5%; viability, T/C [25]: 41.5%; viability, T/C [26]: 37.6%; viability, T/C [29]: 28.9%; viability, T/C [30]: 11.6%
